The results in this text go back to publication PMC6009892, “A novel series of pyrazole-platinum(II) complexes as potential anti-cancer agents that induce cell cycle arrest and apoptosis in breast cancer cells” (Journal of Enzyme Inhibition and Medicinal Chemistry, 2018).

The test system of assay [1] is MDA-MB-231 breast cancer cells. The experiment in a line: Mitochondrial membrane potential JC-1, MDA-MB-231. It counts as cell-based, human. To be noted: MDA-MB-231, 20 μM, 24 h; untreated 5.8%. As to the method: Disruption of the MMP was assessed using the lipophilic cationic probe 5,5′,6,6′-tetrachloro-1,1′,3,3′-tetraethylbenzimidazolcarbocyanine iodide (JC-1 MitoScreen kit; BD Biosciences Systems, San Jose, CA), as described previously. Briefly, unfixed cells were washed and re-suspended in PBS supplemented with 10 µg/ml of JC-1. Cells were then incubated for 15 min at room temperature in the dark, washed, and re-suspended in PBS for immediate BD FACSCanto II flow cytometry analysis. The percentage of cells with disrupted MMP was calculated using FACSDiva software (both from BD Biosciences Systems, San Jose, CA).

Assay [2] has as its system human G1/S-specific cyclin D1 in MDA-MB-231 cells. Briefly: Cyclin D1 ELISA in cell lysates, MDA-MB-231. The format is cell-based. To be noted: MDA-MB-231, 20 μM, 24 h. As to the method:
Cell lysates: Briefly, trypsinised cells were washed three times with cold PBS and centrifuged at 1000 g for 5 min at 4 °C. The cells (1 × 10^6) were suspended in lysis buffer for whole cell lysates. After centrifugation, the supernatants were frozen immediately at −70 °C. The concentration of human G1/S-specific cyclin D1 was measured. Cells without addition of compounds were treated as controls.
Determination of human G1/S-specific cyclin D1: The high sensitivity assay kit (EIAab) was used to determine the concentration of human G1/S-specific cyclin D1 in cell lysates. The microtiter plate provided in this kit has been pre-coated with an antibody specific to cyclin D1. Standards and samples were added to the appropriate microtiter plate wells. After 2 h of incubation at 37 °C, the plate was incubated with biotin-conjugated antibody for 1 h at 37 °C. Then microplate wells were aspirated and washed three times and then incubated with avidin conjugated to horseradish peroxidase (HRP). Then, a TMB substrate solution was added to each well. […] The enzyme–substrate reaction was terminated by the addition of a sulfuric acid solution and the color change was measured spectrophotometrically at a wavelength of 450 nm ± 2 nm. The concentration of cyclin D1 in the samples was determined by comparing the O.D. of the samples to the standard curve.
A general note: An ELISA detects its analyte on a solid surface through an enzyme-linked reagent.

Consider `Cc1cc(C)[n+]([Pt-2]2([n+]3c(C)cc(C)n3CO)[N](c3ccc(C(=N)N)cc3)N=[N+](c3ccc(C(=N)N)cc3)[Pt-2]([n+]3c(C)cc(C)n3CO)([n+]3c(C)cc(C)n3CO)[N](c3ccc(C(=N)N)cc3)N=[N+]2c2ccc(C(=N)N)cc2)n1CO.Cl.Cl.Cl.Cl.O.O` [PtPz1, [Pt2(N-hydroxymethyl-3,5-dimethylpyrazole)4(berenil)2]·4HCl·2H2O], for which the “percent of cells with decrease ΔΨm” value in assay [1] was determined as 90.7%.

In the case of `Cc1ccn[nH]1.Cc1ccn[nH]1.Cc1ccn[nH]1.Cc1ccn[nH]1.Cl.Cl.Cl.Cl.N=C(N)c1ccc(N=N[N]([Pt])c2ccc(C(=N)N)cc2)cc1.N=C(N)c1ccc(N=N[N]([Pt])c2ccc(C(=N)N)cc2)cc1.O.O` [PtPz5, [Pt2(5-methylpyrazole)4(berenil)2]·4HCl·2H2O], the “concentration of cyclin D1” value in assay [2] is 0.7 ng/mL.
